# Activity calls are given as the source filed them. No cut-off for these calls is given here.
# Tests used:
# [1] = Protein binding in mouse plasma assessed as unbound fraction by equilibrium dialysis; type: ADME, cell-free
# [2] = AUC (0 to infinity) in Beagle dog at 1 mg/kg, iv; type: ADME, organism-based, Canis lupus familiaris; settings: in vivo
# [3] = Cmax in Beagle dog at 10 mg/kg, po; type: ADME, organism-based, Canis lupus familiaris; settings: in vivo
# [4] = Volume of distribution at steady state in Beagle dog at 1 mg/kg, iv; type: ADME, organism-based, Canis lupus familiaris; settings: in vivo, read-out: Vdss
# [5] = AUC (0 to infinity) in Sprague-Dawley rat at 0.5 mg/kg, iv; type: ADME, organism-based; settings: in vivo
# [6] = Half life in Cynomolgus monkey at 3 mg/kg, po; type: ADME, organism-based, Macaca fascicularis; settings: in vivo
# Mus musculus = species: Mus musculus; assay: Effect on IL-1beta release in LPS-induced C57Bl6 mouse hippocampus upto 5 uM treated for 1 hr by ELISA; type: functional, tissue-based
# [7] = molecular target: T1, Potassium channel subfamily K member 13 (Mus musculus) (UniProt Q8R1P5); assay: Inhibition of mouse KCNK13 transfected in HEK293 cells assessed as reduction in thallium influx incubated for 15 mins in dark by FLIPR assay relative to control; type: cell-based
# T1 sequence (whole entry): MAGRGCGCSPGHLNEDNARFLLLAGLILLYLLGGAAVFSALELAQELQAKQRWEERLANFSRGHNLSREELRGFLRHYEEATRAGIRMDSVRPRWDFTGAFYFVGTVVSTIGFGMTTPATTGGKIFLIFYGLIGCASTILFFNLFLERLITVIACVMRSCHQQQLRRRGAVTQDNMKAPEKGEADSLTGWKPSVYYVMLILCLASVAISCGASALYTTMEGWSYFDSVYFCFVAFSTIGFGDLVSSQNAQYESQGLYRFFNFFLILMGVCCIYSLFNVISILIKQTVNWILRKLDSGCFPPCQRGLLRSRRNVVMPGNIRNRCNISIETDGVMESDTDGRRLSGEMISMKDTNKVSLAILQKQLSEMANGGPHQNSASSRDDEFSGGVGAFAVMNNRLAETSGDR
# [8] = AUC (0 to infinity) in Beagle dog at 10 mg/kg, po; type: ADME, organism-based, Canis lupus familiaris; settings: in vivo
# [9] = AUC (0 to infinity) in Cynomolgus monkey at 1 mg/kg, iv; type: ADME, organism-based, Macaca fascicularis; settings: in vivo
# [10] = Half life in Beagle dog at 10 mg/kg, po; type: ADME, organism-based, Canis lupus familiaris; settings: in vivo
# [11] = Oral bioavailability in Beagle dog at 10 mg/kg; type: ADME, organism-based, Canis lupus familiaris; settings: in vivo
# [12] = Tmax in Beagle dog at 10 mg/kg, po; type: ADME, organism-based, Canis lupus familiaris; settings: in vivo
# [13] = C0 in Cynomolgus monkey at 1 mg/kg, iv; type: ADME, organism-based, Macaca fascicularis; settings: in vivo
# [14] = Volume of distribution at steady state in Sprague-Dawley rat at 0.5 mg/kg, iv; type: ADME, organism-based; settings: in vivo, read-out: Vdss
# [15] = Half life in Sprague-Dawley rat at 0.5 mg/kg, iv; type: ADME, organism-based; settings: in vivo
structure (smiles),measurement,setting,value
Nc1nonc1-c1nc2cccc(F)c2n1Cc1cccnn1,fraction unbound,[1],0.173
same,AUC,[2],438 ng·h/mL
same,Cmax,[3],241 ng/mL
same,Vd,[4],1.42 L/kg
same,AUC(0-inf),[5],222 ng·h/mL
same,half-life,[6],114 min
same,Activity,Mus musculus,inactive
same,Imax,[7],97%
same,AUC,[8],630 ng·h/mL
same,AUC(0-inf),[9],782 ng·h/mL
same,half-life,[10],156 min
same,F,[11],41%
same,Tmax,[12],1.25 h
same,C0,[13],896 ng/mL
same,Vd,[14],1.85 L/kg
same,half-life,[15],60 min

# Reference: ChEMBL document CHEMBL5634193, “Discovery of CVN293, a Brain Permeable KCNK13 (THIK-1) Inhibitor Suitable for Clinical Assessment” (ACS Med Chem Lett, 2024)
